This data set concerns CCRIS mutagenicity, Ames/micronucleus/aberration tests. As to the kind of experiment: CCRIS mutagenicity studies.
[1] abbreviates: Test System: AMES SALMONELLA TYPHIMURIUM, Strain/Indicator: TA98, Metabolic Activation: NONE, Method: STANDARD PLATE.
The mark [2] stands for this setting: Test System: AMES SALMONELLA TYPHIMURIUM, Strain/Indicator: TA100, Metabolic Activation: NONE, Method: STANDARD PLATE.

Calls of active or inactive are those of the source. No rule for the calls is given here.

Consider `O=C(OC1CCCCC1)c1ccccc1C(=O)OC1CCCCC1`, for which the mutagenic call runs as follows: (Test System: AMES SALMONELLA TYPHIMURIUM, Strain/Indicator: TA98, Metabolic Activation: HAMSTER, LIVER, S-9, AROCLOR 1254 (10%), Method: PREINCUBATION) “inactive; negative”; (Test System: AMES SALMONELLA TYPHIMURIUM, Strain/Indicator: TA98, Metabolic Activation: NONE, Method: PREINCUBATION) “inactive; negative”; (Test System: AMES SALMONELLA TYPHIMURIUM, Strain/Indicator: TA98, Metabolic Activation: RAT, LIVER, S-9, AROCLOR 1254 (10%), Method: PREINCUBATION) “inactive; negative”; (Test System: AMES SALMONELLA TYPHIMURIUM, Strain/Indicator: TA100, Metabolic Activation: HAMSTER, LIVER, S-9, AROCLOR 1254 (10%), Method: PREINCUBATION) “inactive; negative”; (Test System: AMES SALMONELLA TYPHIMURIUM, Strain/Indicator: TA100, Metabolic Activation: NONE, Method: PREINCUBATION) “inactive; negative”; (Test System: AMES SALMONELLA TYPHIMURIUM, Strain/Indicator: TA100, Metabolic Activation: RAT, LIVER, S-9, AROCLOR 1254 (10%), Method: PREINCUBATION) “inactive; negative”. Further, the mutagenic call is “inactive; negative” (Test System: AMES SALMONELLA TYPHIMURIUM, Strain/Indicator: TA1535, Metabolic Activation: HAMSTER, LIVER, S-9, AROCLOR 1254 (10%), Method: PREINCUBATION); “inactive; negative” (Test System: AMES SALMONELLA TYPHIMURIUM, Strain/Indicator: TA1535, Metabolic Activation: NONE, Method: PREINCUBATION); “inactive; negative” (Test System: AMES SALMONELLA TYPHIMURIUM, Strain/Indicator: TA1535, Metabolic Activation: RAT, LIVER, S-9, AROCLOR 1254 (10%), Method: PREINCUBATION); “inactive; negative” (Test System: AMES SALMONELLA TYPHIMURIUM, Strain/Indicator: TA1537, Metabolic Activation: HAMSTER, LIVER, S-9, AROCLOR 1254 (10%), Method: PREINCUBATION); “inactive; negative” (Test System: AMES SALMONELLA TYPHIMURIUM, Strain/Indicator: TA1537, Metabolic Activation: NONE, Method: PREINCUBATION); “inactive; negative” (Test System: AMES SALMONELLA TYPHIMURIUM, Strain/Indicator: TA1537, Metabolic Activation: RAT, LIVER, S-9, AROCLOR 1254 (10%), Method: PREINCUBATION).

For the compound `O=C1c2c(ccc3ccccc23)-c2cccc3cccc1c23`, the mutagenic call runs as follows: under setting [1], “inactive; negative”; under setting [2], “inactive; negative”.

Regarding `O=C1NC(=S)NC(=O)C1C(=O)Nc1ccccc1`, the mutagenic call is, setting by setting: (Test System: AMES SALMONELLA TYPHIMURIUM, Strain/Indicator: TA102, Metabolic Activation: NONE, Method: STANDARD PLATE) “inactive; negative”; (Test System: CHINESE HAMSTER V-79, Strain/Indicator: V-79 (HPRT)/6-THIOGUANINE, Metabolic Activation: NONE) “inactive; negative”; (Test System: MOUSE LYMPHOMA, Strain/Indicator: L5178Y (HPRT)/6-THIOGUANINE, Metabolic Activation: NONE, Method: FLUCTUATION TEST) “active; positive”; (Test System: MOUSE LYMPHOMA, Strain/Indicator: L5178Y (TK+/TK-), Metabolic Activation: NONE, Method: FLUCTUATION TEST) “active; positive”.

In the case of `CC(C)NCC1CCc2cc(CO)c([N+](=O)[O-])cc2N1` (stereo not drawn), the mutagenic call by setting is: under setting [1], “active; positive”; (Test System: AMES SALMONELLA TYPHIMURIUM, Strain/Indicator: TA98, Metabolic Activation: RAT, LIVER, S-9, AROCLOR 1254 OR PHENOBARBITOL, Method: STANDARD PLATE) “active; positive”; (Test System: AMES SALMONELLA TYPHIMURIUM, Strain/Indicator: TA100(FR1), Metabolic Activation: NONE, Method: STANDARD PLATE) “inactive; negative”; (Test System: AMES SALMONELLA TYPHIMURIUM, Strain/Indicator: TA100(FR1), Metabolic Activation: RAT, LIVER, S-9, PHENOBARBITAL AND 3-METHYLCHOLANTHRENE, Method: STANDARD PLATE) “inactive; negative”; (Test System: AMES SALMONELLA TYPHIMURIUM, Strain/Indicator: TA100, Metabolic Activation: RAT, LIVER, S-9, AROCLOR 1254 OR PHENOBARBITOL, Method: STANDARD PLATE) “active; positive”; (Test System: AMES SALMONELLA TYPHIMURIUM, Strain/Indicator: TA100, Metabolic Activation: RAT, LIVER, S-9, PHENOBARBITAL AND 3-METHYLCHOLANTHRENE, Method: STANDARD PLATE) “inactive; negative”. Further, the mutagenic call was “inactive; negative” (Test System: AMES SALMONELLA TYPHIMURIUM, Strain/Indicator: TA1535, Metabolic Activation: NONE, Method: STANDARD PLATE); “inactive; negative” (Test System: AMES SALMONELLA TYPHIMURIUM, Strain/Indicator: TA1535, Metabolic Activation: RAT, LIVER, S-9, AROCLOR 1254 OR PHENOBARBITOL, Method: STANDARD PLATE); “inactive; negative” (Test System: AMES SALMONELLA TYPHIMURIUM, Strain/Indicator: TA1537, Metabolic Activation: NONE, Method: STANDARD PLATE); “inactive; negative” (Test System: AMES SALMONELLA TYPHIMURIUM, Strain/Indicator: TA1537, Metabolic Activation: RAT, LIVER, S-9, AROCLOR 1254 OR PHENOBARBITOL, Method: STANDARD PLATE); “inactive; negative” (Test System: AMES SALMONELLA TYPHIMURIUM, Strain/Indicator: TA1538, Metabolic Activation: NONE, Method: STANDARD PLATE); “inactive; negative” (Test System: AMES SALMONELLA TYPHIMURIUM, Strain/Indicator: TA1538, Metabolic Activation: RAT, LIVER, S-9, AROCLOR 1254 OR PHENOBARBITOL, Method: STANDARD PLATE). Further, the mutagenic call by setting is: (Test System: CHINESE HAMSTER V-79, Strain/Indicator: V-79/6-THIOGUANINE, Metabolic Activation: NONE) “active; positive”; (Test System: CHINESE HAMSTER V-79, Strain/Indicator: V-79/6-THIOGUANINE, Metabolic Activation: RAT, LIVER, HEPATOCYTES) “active; positive”; (Test System: CHINESE HAMSTER V-79, Strain/Indicator: V-79/OUABAIN, Metabolic Activation: NONE) “active; positive”; (Test System: CHINESE HAMSTER V-79, Strain/Indicator: V-79/OUABAIN, Metabolic Activation: RAT, LIVER, HEPATOCYTES) “active; positive”.

Turning to `CCOP(=O)(OCC)Oc1cc(C)nc(C(C)C)n1`, the mutagenic call under setting [1] was “inactive; negative”; the mutagenic call (Test System: AMES SALMONELLA TYPHIMURIUM, Strain/Indicator: TA98, Metabolic Activation: RAT, LIVER, S-9, Method: STANDARD PLATE) was “inactive; negative”; the mutagenic call under setting [2] is “active; positive”; the mutagenic call (Test System: AMES SALMONELLA TYPHIMURIUM, Strain/Indicator: TA100, Metabolic Activation: RAT, LIVER, S-9, Method: STANDARD PLATE) is “inactive; negative”.

Values taken from PubChem BioAssay AID1259407 (Chemical Carcinogenesis Research Information System (CCRIS), 2018).
